Our source for the IC50 values is patent publication US5622947A, “Benzoheterocyclic compounds and vasopressin antagonist and oxytocin antagonist compositions containing a benzoheterocyclic compound” (Otsuka Pharmaceutical Co., Ltd., priority 1992, dated 1997).

The target in the assay is T1, Oxytocin receptor (uterin muscle membrane preparation) (Rattus norvegicus, UniProt P70536).
T1 construct: was homogenized, which was used as a membrane; from tissue; host or cells: uterine muscle membranes from diethylstilbestrol-treated animals
T1 sequence (P70536 1-388): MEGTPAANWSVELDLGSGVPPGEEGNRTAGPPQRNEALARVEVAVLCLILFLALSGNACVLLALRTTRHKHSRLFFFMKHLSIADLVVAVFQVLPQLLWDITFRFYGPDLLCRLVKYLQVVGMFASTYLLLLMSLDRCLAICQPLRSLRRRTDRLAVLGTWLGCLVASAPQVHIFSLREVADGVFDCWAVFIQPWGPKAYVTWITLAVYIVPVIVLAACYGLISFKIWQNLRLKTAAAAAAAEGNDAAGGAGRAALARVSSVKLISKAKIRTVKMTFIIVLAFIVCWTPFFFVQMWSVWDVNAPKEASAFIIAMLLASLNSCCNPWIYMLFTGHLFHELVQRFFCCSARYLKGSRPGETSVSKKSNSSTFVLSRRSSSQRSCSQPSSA
Briefly: Oxytocin receptor binding assay. The settings on record: [3H]-oxytocin 10^-9 M, 25°, one hour, pH 8.0, uterin muscle membrane, DES-treated. On the procedure: Test-5 Oxytocin receptor binding assay
In accordance with Chan's method [by W. Y. Chan, et al.: Endocrinology, 126, 2095-2101 (1990)], the uterin muscle benn injected subcutaneously with diethylstilbe-sterol (DES) the day before and was homogenized, which was used as a membrane prepara tion. The membrane preparation (0.2 mg), [^3 H]-oxytocin (100,000 dpm, 10^-9 M), a test compound (10^-9 to 10^-5 M) were incubated at 25°. for one hour in 100 mM Tris-HCl buffer (pH=8.0, 250 μl) containing 5 mM MgCl2, 1 mM EDTA and 0.1% BSA. The mixture was filtered through a glass filter (GF/F) so as to separate the membrane preparation combining with [^3 H]-oxytocin, then, was washed twicw with the buffer (5 ml). The glass filter was put into a vial and mixed with Aquasole (a liquid scintillation cocktail). The amount of [^3 H]-oxytocin combining w ith the membrane was measured by a liquid scintillation counter. The rate of the inhibitory effect of the test compound was calculated according to the equation as follows: […]
C1 : the amount of [^3 H]-oxytocin combining with the membrane in the presence of a test compound (in known amount),
C0 : the amount of [^3 H]-oxytocin combinig with the membrane in the absence of a test compound,
B: the amount of [^3 H]-oxytocin combining with the membrane in the presence of the excess amount of oxytocin (5×10^-6 M).
The results are expressed as IC50 values, which is the concentration of the test compound required to achieve the inhibitory effect in the rate of 50%.

Counter-ions that a name gives are not always drawn.

`COc1cc(NC(=O)c2ccccc2C)ccc1C(=O)N1CCCC(OC(=O)CN2CCOCC2)c2cc(Cl)ccc21` (stereo not shown) [Example 17, 5-(2-Morpholinoacetyloxy)-7-chloro-1-[2-methoxy-4-(2-methylbenzoylamino)benzoyl]-2,3,4,5-tetrahydro-1H-benzoazepine]: the half-inhibitory concentration (IC50) is 46 nM.
The value for `COc1cc(C(=O)N2CCCC(CC(=O)N(C)C)c3cc(Cl)ccc32)ccc1NC(=O)c1ccccc1C` (stereo not shown) [Example 32, 5-Dimethylaminocarbonylmethyl-7-chloro-1-[3-methoxy-4-(2-methylbenzoylamino)benzoyl]-2,3,4,5-tetrahydro-1H-benzoazepine] was 610 nM; that for `COc1cc(NC(=O)c2ccccc2Br)ccc1C(=O)N1CCCC(CC(=O)N2CCC(NC(C)=O)CC2)c2cc(F)ccc21` (stereo not shown) [Example 60, 5-[(4-Acetylamino-1-piperidinyl)carbonylmethyl]-7-fluoro-1-[2-methoxy-4-(2-bromobenzoylamino)benzoyl]-2,3,4,5-tetrahydro-1H-benzoazepine] was 99 nM; that for `COc1cc(NC(=O)Cc2ccccc2C)ccc1C(=O)N1CCCC(OC(=O)CN(C)C)c2cc(Cl)ccc21` (stereo not shown) [Example 68, 5-(2-Dimethylaminoacetyloxy)-7-chloro-1-{2-methoxy-4-[2-(2-methylphenyl)acetylamino]benzoyl}-2,3,4,5-tetrahydro-1H-benzoazepine] was 230 nM.
Consider `Cc1ccccc1CC(=O)Nc1ccc(C(=O)N2CCCC(O)c3cc(Cl)ccc32)cc1` (stereo not shown) [Example 106, 5-Hydroxy-7-chloro-1-{4-[2-(2-methylphenyl)acetylamino]benzoyl}-2,3,4,5-tetrahydro-1H-benzoazepine], for which the IC50 turned out to be 600 nM.
The value for `COc1cc(C(=O)N2CCCC(OC(=O)[C@@H](N)CCCCN)c3cc(Cl)ccc32)ccc1NC(=O)c1ccccc1C` (stereo partly shown) [Example 107] was 1300 nM; that for `Cc1ccccc1C(=O)Nc1ccc(C(=O)N2CCCC(CC(=O)N3CCN(C)CC3)c3cc(Cl)ccc32)c(Cl)c1` (stereo not shown) [Example 108] was 1900 nM.
The value for `Cc1ccccc1C(=O)Nc1ccc(C(=O)N2CCCC(CC(=O)N3CCN(C)CC3)c3cc(Cl)ccc32)cc1` (stereo not shown) [Example 109] was 360 nM; that for `COc1cc(NC(=O)c2ccccc2C)ccc1C(=O)N1CCCC(CC(=O)N2CCC(N(C)C)CC2)c2cc(F)ccc21` (stereo not shown) [Example 110] was 220 nM; that for `Cc1ccccc1C(=O)Nc1ccc(C(=O)N2CCCC(CC(=O)N(C)C)c3cc(Cl)ccc32)cc1` (stereo not shown) [Example 111, 5-Dimethylaminocarbonylmethyl-7-chloro-1-[4-(2-methylbenzoylamino)benzoyl]-2,3,4,5-tetrahydro-1H-benzoazepine] was 250 nM.
The value for `Cc1ccccc1C(=O)Nc1ccc(C(=O)N2CCCC(CC(N)=O)c3cc(Cl)ccc32)cc1` (stereo not shown) [Example 112, 5-Carbamoylmethyl-7-chloro-1-[4-(2-methylbenzoylamino)benzoyl]-2,3,4,5-tetrahydro-1H-benzoazepine] was 280 nM; that for `O=C(Nc1ccc(C(=O)N2CCCC(OCCO)c3cc(Cl)ccc32)cc1)c1ccccc1Cl` (stereo not shown) [Example 113] was 250 nM; that for `COc1cc(NC(=O)c2ccccc2Br)ccc1C(=O)N1CCCC(CC(=O)N2CCCC2)c2cc(F)ccc21` (stereo not shown) [Example 114] was 170 nM.
`Cc1ccccc1C(=O)Nc1ccc(C(=O)N2CCCC(CC(=O)N3CCNCC3)c3cc(Cl)ccc32)c(C)c1` (stereo not shown) [Example 115] returned an IC50 of 2100 nM.
The value for `CN1CCN(C(=O)CC2CCCN(C(=O)c3ccc(NC(=O)c4ccccc4Cl)cc3)c3ccc(Cl)cc32)CC1` (stereo not shown) [Example 116] was 380 nM.
The value for `COc1cc(C(=O)N2CCCC(CC(=O)N3CCN(C)CC3)c3cc(Cl)ccc32)ccc1NC(=O)c1ccccc1Cl` (stereo not shown) [Example 117, 5-(4-Methyl-1-piperazinyl)carbonylmethyl-7-chloro-1-[3-methoxy-4-(2-chlorobenzoylamino)benzoyl]-2,3,4,5-tetrahydro-1H-benzoazepine.cndot.hydrochlorid] was 320 nM.

A word on the IC50: it is the concentration that gives 50% inhibition. Read a low IC50 as greater potency.
